Experimental data as given in PubChem BioAssay AID330 (DTP/NCI, 2004).
Several values for one entry are separate records, joined by “and”; a condition that tells them apart may be missing. Equal entries are not always repeated. Inconclusive results and toxic doses are left out. The calls were made as follows: active = survival T/C of 150% or more; inactive = T/C below 125% in these data.

Test system: P388 leukemia ip, CD2F1 mice, survival T/C
Assay: NCI In Vivo Anticancer Drug Screen. Data for tumor model P388 Leukemia (intraperitoneal) in CD2F1 (CDF1) mice
Settings: endpoint: median survival time, higher = longer survival
Outline: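 Mice carrying the transplanted tumor received test compound or vehicle. Survival was recorded in each group, and the value is the treated-group measurement divided by that of the vehicle-treated control group.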

[1] = dose: 50.0 mg/kg/injection, schedule: Q01DX005 (ip), vehicle: saline with Tween-80
[2] = dose: 100.0 mg/kg/injection, schedule: Q01DX005 (ip), vehicle: saline with Tween-80
[3] = dose: 200.0 mg/kg/injection, schedule: Q01DX005 (ip), vehicle: saline with Tween-80
[4] = dose: 60.0 mg/kg/injection, schedule: Q01DX005 (ip), vehicle: saline with Tween-80
[5] = dose: 120.0 mg/kg/injection, schedule: Q01DX005 (ip), vehicle: saline with Tween-80
[6] = dose: 240.0 mg/kg/injection, schedule: Q01DX005 (ip), vehicle: saline with Tween-80
[7] = dose: 50.0 mg/kg/injection, schedule: Q01DX009 (ip), vehicle: saline
[8] = dose: 100.0 mg/kg/injection, schedule: Q01DX009 (ip), vehicle: saline
[9] = dose: 15.0 mg/kg/injection, schedule: Q01DX005 (ip), vehicle: saline with Tween-80
[10] = dose: 30.0 mg/kg/injection, schedule: Q01DX005 (ip), vehicle: saline with Tween-80
[11] = dose: 50.0 mg/kg/injection, schedule: Q01DX009 (ip), vehicle: saline with Tween-80

Measured: T/C

Cn1c(=O)ccc2ccccc21
inactive: dose: 25.0 mg/kg/injection, schedule: Q04DX002 (ip), vehicle: saline with Tween-80 103 % of control | dose: 50.0 mg/kg/injection, schedule: Q04DX002 (ip), vehicle: saline with Tween-80 100 % of control | dose: 50.0 mg/kg/injection, schedule: Q04DX003 (ip), vehicle: saline 108 % of control | dose: 100.0 mg/kg/injection, schedule: Q04DX002 (ip), vehicle: saline with Tween-80 108 % of control | dose: 100.0 mg/kg/injection, schedule: Q04DX003 (ip), vehicle: saline 104 % of control and 113 % of control

CCn1c2ccccc2c2cc(N=Nc3cc(CN(C)C)c(O)c4ncccc34)ccc21
inactive: [1] 100 % of control | [2] 100 % of control | [3] 100 % of control

CN(C(=S)NNC(=O)C1CCC(=O)N1)c1ccccc1 (stereo unspecified)
inactive: [4] 99 % of control | [5] 98 % of control | [6] 103 % of control

CC(C)(N)CNc1ccccc1
inactive: dose: 25.0 mg/kg/injection, schedule: Q01DX009 (ip), vehicle: saline 111 % of control | [7] 117 % of control | [8] 120 % of control

OC1CC2c3ccccc3C1c1cccc[n+]12 (stereo unspecified)
inactive: dose: 12.5 mg/kg/injection, schedule: Q01DX005 (ip), vehicle: saline 106 % of control | dose: 25.0 mg/kg/injection, schedule: Q01DX005 (ip), vehicle: saline 108 % of control | dose: 50.0 mg/kg/injection, schedule: Q01DX005 (ip), vehicle: saline 103 % of control and 106 % of control

O=C(Nc1c(Cl)cccc1Cl)Oc1cccc2cccnc12
inactive: [9] 97 % of control | [10] 107 % of control | [4] 100 % of control and 92 % of control

O=C1Nc2ncnn2C1=O
inactive: [11] 108 % of control | dose: 100.0 mg/kg/injection, schedule: Q01DX009 (ip), vehicle: saline with Tween-80 111 % of control | dose: 200.0 mg/kg/injection, schedule: Q01DX009 (ip), vehicle: saline with Tween-80 99 % of control | dose: 400.0 mg/kg/injection, schedule: Q01DX009 (ip), vehicle: saline with Tween-80 96 % of control

CCC(C)C(NC(=O)OC(C)(C)c1ccc(-c2ccccc2)cc1)C(=O)O (stereo unspecified)
inactive: [1] 99 % of control | [2] 102 % of control | [3] 95 % of control

CC[N+](CC)(CC)Cc1ccccc1
inactive: dose: 6.25 mg/kg/injection, schedule: Q04DX003 (ip), vehicle: saline sonified 109 % of control | dose: 12.5 mg/kg/injection, schedule: Q04DX003 (ip), vehicle: saline sonified 109 % of control | dose: 25.0 mg/kg/injection, schedule: Q04DX003 (ip), vehicle: saline sonified 109 % of control

c1ccc(Cn2nnnc2Nc2ccccc2)cc1
inactive: dose: 25.0 mg/kg/injection, schedule: Q01DX005 (ip), vehicle: Klucel (hydroxypropylcellulose) (HPC) 94 % of control | dose: 50.0 mg/kg/injection, schedule: Q01DX005 (ip), vehicle: Klucel (hydroxypropylcellulose) (HPC) 88 % of control and 97 % of control | dose: 100.0 mg/kg/injection, schedule: Q01DX005 (ip), vehicle: Klucel (hydroxypropylcellulose) (HPC) 94 % of control | dose: 200.0 mg/kg/injection, schedule: Q01DX005 (ip), vehicle: Klucel (hydroxypropylcellulose) (HPC) 90 % of control

O=C(c1ccccc1)C1C(c2ccccc2)SC(c2ccccc2)CC1(O)Cl (stereo unspecified)
inactive: dose: 100.0 mg/kg/injection, schedule: Q04DX002 (ip), vehicle: Klucel (hydroxypropylcellulose) (HPC) 87 % of control | dose: 200.0 mg/kg/injection, schedule: Q04DX002 (ip), vehicle: Klucel (hydroxypropylcellulose) (HPC) 87 % of control | dose: 400.0 mg/kg/injection, schedule: Q04DX002 (ip), vehicle: Klucel (hydroxypropylcellulose) (HPC) 87 % of control

NNC(=O)C(=O)NCc1ccco1
inactive: dose: 12.5 mg/kg/injection, schedule: Q01DX009 (ip), vehicle: saline with Tween-80 88 % of control | dose: 25.0 mg/kg/injection, schedule: Q01DX009 (ip), vehicle: saline with Tween-80 98 % of control | [11] 95 % of control

COc1cc(NC(C)CCCN)c2nc(C)ccc2c1Oc1ccc(F)cc1 (stereo unspecified)
inactive: dose: 12.5 mg/kg/injection, schedule: Q01DX009 (ip), vehicle: water 109 % of control | dose: 25.0 mg/kg/injection, schedule: Q01DX009 (ip), vehicle: water 92 % of control

O=C(Nc1ccc(Cl)cc1C(F)(F)F)OCCCc1ccncc1
inactive: [7] 98 % of control | [8] 91 % of control | dose: 200.0 mg/kg/injection, schedule: Q01DX009 (ip), vehicle: saline 91 % of control

NNC(=O)c1cnn(-c2ccccc2)c1N
inactive: [9] 99 % of control | [10] 93 % of control | [4] 99 % of control and 94 % of control

Cc1[nH]c2ccc(Br)cc2c1/C=N/NC(N)=S
inactive: dose: 100.0 mg/kg/injection, schedule: Q01DX001 (ip), vehicle: Klucel (hydroxypropylcellulose) (HPC) 101 % of control | dose: 200.0 mg/kg/injection, schedule: Q01DX001 (ip), vehicle: Klucel (hydroxypropylcellulose) (HPC) 97 % of control | dose: 400.0 mg/kg/injection, schedule: Q01DX001 (ip), vehicle: Klucel (hydroxypropylcellulose) (HPC) 90 % of control

COc1ccc(C(C)=C2C=C(C(C)(C)C)C(=O)C(C(C)(C)C)=C2)cc1
inactive: dose: 50.0 mg/kg/injection, schedule: Q01DX005 (ip), vehicle: saline + Tween-80 + alcohol 111 % of control | dose: 100.0 mg/kg/injection, schedule: Q01DX005 (ip), vehicle: saline + Tween-80 + alcohol 109 % of control | dose: 200.0 mg/kg/injection, schedule: Q01DX005 (ip), vehicle: saline + Tween-80 + alcohol 113 % of control

CN1C(=O)C(Cc2cnc[nH]2)NC1=S (stereo unspecified)
inactive: dose: 60.0 mg/kg/injection, schedule: Q01DX005 (ip), vehicle: Klucel (hydroxypropylcellulose) (HPC) 101 % of control | dose: 120.0 mg/kg/injection, schedule: Q01DX005 (ip), vehicle: Klucel (hydroxypropylcellulose) (HPC) 111 % of control | dose: 240.0 mg/kg/injection, schedule: Q01DX005 (ip), vehicle: Klucel (hydroxypropylcellulose) (HPC) 93 % of control

O=C(Nc1ccc(C2=NCCCN2)cc1)c1ccc(NC(=O)c2ccc(C3=NCCCN3)cc2)cc1
inactive: dose: 375.0 micrograms/kg/injection, schedule: Q04DX003 (ip), vehicle: saline 109 % of control | dose: 750.0 micrograms/kg/injection, schedule: Q04DX003 (ip), vehicle: saline 100 % of control | dose: 1500.0 micrograms/kg/injection, schedule: Q04DX003 (ip), vehicle: saline 109 % of control
active: dose: 5.0 mg/kg/injection, schedule: Q01DX009 (ip), vehicle: saline 200 % of control | dose: 10.0 mg/kg/injection, schedule: Q01DX009 (ip), vehicle: saline 250 % of control | dose: 12.5 mg/kg/injection, schedule: Q04DX003 (ip), vehicle: saline 160 % of control | dose: 20.0 mg/kg/injection, schedule: Q04DX003 (ip), vehicle: saline with Tween-80 186 % of control

O=C(S)c1ccc(Cl)c(Cl)c1
inactive: [1] 90 % of control | [2] 87 % of control | [3] 92 % of control

Nc1nc(Cc2ccccc2)c(-c2ccccc2)c(-c2nc(N)nc(Cc3ccccc3)c2-c2ccccc2)n1
inactive: [4] 100 % of control | [5] 105 % of control | [6] 99 % of control

O=C(NNC(O)C(F)(F)F)c1ccccc1 (stereo unspecified)
inactive: dose: 100.0 mg/kg/injection, schedule: Q04DX003 (ip), vehicle: Klucel (hydroxypropylcellulose) (HPC) 103 % of control | dose: 200.0 mg/kg/injection, schedule: Q04DX003 (ip), vehicle: Klucel (hydroxypropylcellulose) (HPC) 103 % of control | dose: 400.0 mg/kg/injection, schedule: Q04DX003 (ip), vehicle: Klucel (hydroxypropylcellulose) (HPC) 110 % of control

OC(c1ccncc1)(c1ccc(Cl)cc1)c1cccs1 (stereo unspecified)
inactive: dose: 50.0 mg/kg/injection, schedule: Q01DX009 (ip), vehicle: Klucel (hydroxypropylcellulose) (HPC) 101 % of control | dose: 100.0 mg/kg/injection, schedule: Q01DX009 (ip), vehicle: Klucel (hydroxypropylcellulose) (HPC) 98 % of control | dose: 200.0 mg/kg/injection, schedule: Q01DX009 (ip), vehicle: Klucel (hydroxypropylcellulose) (HPC) 93 % of control
